Measurements as given in patent publication US20240299393A1, “SMALL MOLECULE DISRUPTORS OF PROTEIN INTERACTIONS IN HISTONE DEACETYLASE COMPLEXES” (Dana-Farber Cancer Institute, Inc., priority 2021, published 2024).
Several values for one entry are separate records, joined by “and”; a condition that tells them apart may be missing. Equal values may be shown once. Entries after “also recorded” stand apart in the source; their conditions may differ. Values belong to the molecule of their own block, whether it stands above or below them. Square brackets hold non-standard residues; d marks the D form. Peptide text beside a SMILES is read from it. ξ: configuration not given here. Aoe(9ξ) = N[C@@H](CCCCCC(=O)C1CO1)C(=O)O; dPip = O=C(O)[C@H]1CCCCN1

Key:
[1] = test system: Rpd3-regulated genes (URS-URA3, INO1, IME2, CAR1, SPO13, TRK2); test: RT-qPCR of Rpd3-regulated genes in yeast; format: cell-based, S. cerevisiae
Protocol: After yeast cells reached OD600 nm ˜0.5 in 0.8-1 mL of YPD, they were grown for two more hours at room temperature before being centrifuged to remove supernatant and freezing pellets on dry ice. For compound treatments, yeast cells at OD600 nm˜0.5 in YPD were incubated at room temperature for two hours with DMSO (1-1.6%) or the desired compound (from 25 mM stock in 100% DMSO) in an 2 mL-tube for a final volume of 0.8 mL in YPD, before being centrifuged, washed and frozen as described above. Yeast cells were then harvested for RNA extraction using a RiboPure RNA Purification Kit (Invitrogen, cat #AM1926), which involves mechanical cell wall disruption, phenol extraction of the lysate, and RNA purification using glass fiber, and filter-based RNA purification columns. RNA concentration was measured for individually purified RNA samples using a NanoDrop spectrophotometer. A total of 1 μg RNA from each sample was used for reverse transcription following a published procedure [Choi, S. G. et al 2012].
(§1) The RT-qPCR protocol used in this study was described elsewhere [Choi et al 2012]. Culture, RNA extraction, and compound treatments for neuroblastoma SK-N-BE(2)-C cells are described below. Approximately 1 μg RNA per sample was used for reverse transcription. Using a thermocycler, RNA was denatured in the presence of 0.2 μg 18 mer oligo-dT by heating the plate at 65° C. for 10 min. The plate was then immediately cooled down on ice to anneal oligo-dT on the poly-A tail of mRNA. A master mix of AffinityScript Multiple Temperature Reverses Transcriptase (Agilent, cat #600107) was prepared following the manufacturer's protocol, and mixed with RNA samples previously annealed with the oligo-dT. The plate was incubated at 42° C. for 2 h to generate cDNAs from mRNA templates. The reverse transcriptase was then denatured by heating the plate at 70° C. for 15 min. The resulting cDNA was diluted (1:20) in sterile, ultra pure water (ddH2O), and stored at −20° C. until used for qPCR. To measure gene expression, the diluted cDNA was mixed with 5 μL PowerUp SYBR Green master mix (Applied Biosystems, cat #A25743), and the mix of primers (forward+reverse, see FIG. 31; 0.3 μM final concentration) for a total volume of 10 μL. Two technical replicates were generated per cDNA sample in the 384-well PCR plate (Applied Biosystems, cat #4343370). The plate was tightly sealed with optical adhesive film (Applied Biosystems, cat #4311971). Quantitative PCR was conducted with a QuantStudio real-time PCR system from Applied Biosystems, with the following settings: 50° C./2 min, 95° C./10 min, 96° C./15 s/40 cycles, and 60° C./30 s. Dissociation curves were checked for each PCR product, to assess the specificity of the PCR amplicons.
Expression of gene X normalized to the control gene expression=k*1.96^(Ct^Control^−Ct^Test^) • where k is an arbitrary multiplier (k=1000 in this study), 1.96 is the PCR amplification efficiency constant, Ct is the cycle threshold, CtControl is the Ct value for the housekeeping gene used as control (UBC6 in yeast [Teste et al 2009]; RPS11 in human cells [Zhan et al 2014], and CtTest is the Ct value for the tested gene. Replicates corresponding to DMSO treatments or WT yeast cells were averaged and other data points normalized using those DMSO or WT values as references (i.e. expression relative to DMSO or WT). TAF10 in yeast or SNRPD3 in human cells were used as genes not known for being regulated by an HDAC complex (HDAC-unrelated genes).

[2] = test system: Rpd3-sensitive acid phosphatase activity; test: Yeast acid phosphatase plate assay; format: cell-based, S. cerevisiae; conditions: phosphate-rich (high Pi) medium
Protocol: The acid phosphatase plate assay was implemented as previously described [To et al 1973, Loewith et al 2001], with minor modifications. Cells were grown on high Pi medium (see above) for 2 days, at 30° C. A staining solution containing 2 mg/mL of 1-naphtyl phosphate (Sigma, N5602) and 4 mg/mL fast blue B salt (Sigma, D9805) was then prepared in 50 mM sodium acetate buffer pH 4.0±0.1, and maintained at 50° C. for ˜30 min before being filtered. Meanwhile, a solution of 10 mg/mL (1% weight/volume) ultra pure low melting point (LMP) agarose (Invitrogen, 15517-022) was prepared in 50 mM sodium acetate buffer pH 4.0±0.1, by microwaving the suspension until complete dissolution of the powder. The volume of the agarose solution was checked and readjusted with 50 mM sodium acetate buffer pH 4.0±0.1. The agarose solution was then mixed with the filtered staining solution by vortexing briefly, and the resulting suspension was kept at 50° C. for ˜15 min. The solid agar plate on which cells grew for 2 days were then gently overlaid with the agarose-containing staining solution, allowing its gelification on top of the cells. A red coloring started to appear ˜2 min after covering cells with the solution.

[3] = test system: cycloheximide (CYH) sensitivity; test: Yeast cycloheximide sensitivity at 37° C.; format: cell-based, S. cerevisiae
Protocol: For assessment of cycloheximide (CYH) sensitivity at 37° C., yeast cells with the cyh2^R genotype (FIG. 29) were first transformed with an empty pDEST-AD-TRP1-CYH2 plasmid (FIG. 30) before running the different experiments. Selection of the plasmid was maintained by culturing cells in SC-W medium.

[4] = test system: HDAC class I and II enzymes (live yeast cells, HeLa nuclear extract, semi-purified human HDAC1); test: HDAC-Glo I/II luminescence HDAC enzymatic assay; format: biochemical, S. cerevisiae; human; conditions: three HDAC sources
Protocol: The HDAC-Glo I/II screening system (Promega, cat #G6430) was adapted to measure the effect of compounds on the enzymatic activity of human and yeast HDAC sources. […] FLAG-HDAC1 was eluted from anti-FLAG beads before running the assay, using a FLAG peptide. Nuclear extracts from human HeLa cells were provided in the assay kit. HDAC enzymatic activity was measured following the manufacturer's protocol. Briefly, linear ranges of the assay were determined by measuring luminescence signals, in a serial dilution manner, for semi-purified human HDAC1, or live yeast cells, diluted in the HDAC-Glo I/II buffer. For HeLa nuclear extracts, the manufacturer provided this information in the assay kit. For the different HDAC sources, dilution factors corresponding to signals in the linear ranges were used. To test the effect of compounds (three or four replicates) on HDAC enzymatic activity, equal volumes of HDAC sources (5 μL), and inhibitors (5 μL) were added to the different wells of a white, flat bottom 384-well plate. The plate was then briefly centrifuged with a tabletop centrifuge, and gently shaken for 1 min at 700 rpm. The plate was tightly sealed to prevent evaporation, and incubated at room temperature for 1 h. […] Luminescence signals were measured using a TriStar luminometer from Berthold Technologies, with 1 s integration time per sample. […]

[5] = test system: CDKN1A, SOCS3, EGR1 in SK-N-BE(2)-C cells; test: RT-qPCR of SIN3 HDAC complex-regulated genes in neuroblastoma cells; format: cell-based, human; conditions: 100 μM for 16 h
Protocol: as §1
SK-N-BE(2)-C cells were maintained in cell culture flasks supplemented with 10% Fetal bovine serum (FBS) and penicillin/streptomycin (PS) in Dulbecco's Modified Eagle's Medium (DMEM). The cells were maintained at a log phase in a humidified 5% CO2 incubator at 37° C. For testing the effect of the compounds on gene expression, approximately 0.1 million cells were seeded on each well of 24-well cell culture plates, with 1 mL 10% FBS+PS+DMEM. 24 h after seeding the cells, they were exposed to the compounds or DMSO control for 16 h in a humidified 5% CO2 incubator at 37° C., before harvesting them.
Cells were harvested for RNA extraction using Nucleospin 96 RNA (Macherey-Nagel, cat #740709.4) following manufacturer's protocol. Briefly, supernatant was removed, and the cells were gently washed with 1× phosphate-buffered saline. 300 μL lysis buffer were added to each well of 24 well cell culture plates. Roughly 0.1 million cells were used for harvesting each RNA sample. RNA concentration was measured for all purified RNA samples using a nanodrop spectrophotometer.

[6] = Mouse liver microsome stability test; format: in vitro ADME; conditions: 1 mg/mL hepatic microsomes
Protocol: Mouse liver microsome (MLM) half-life measurements were performed by Scripps Florida Pharmacology Core, according to their protocols [Lamberto et al 2017]. 1 mg/mL hepatic microsomes was used to test compounds.
To assess whether E6R may be suitable for testing the effect of HDAC inhibition via new mechanisms in mouse, the half-life […] and intrinsic clearance (Clint) of this compound was first measured using a standard microsomal metabolic assay where sunitinib was used as a control [Lamberto et al 2017]. In this setting, compound degradation is induced by concentrated microsomes isolated from mouse liver. In particular, these hepatic extracts contain the cytochrome P450 system that is primarily responsible for first pass metabolism in vivo.

[7] = target: Sin3 PAH2/Ume6 SID interaction (Saccharomyces cerevisiae, UniProt P22579); test: biochemical
Sin3 PAH2/Ume6 SID interaction, sequence (P22579 402-473): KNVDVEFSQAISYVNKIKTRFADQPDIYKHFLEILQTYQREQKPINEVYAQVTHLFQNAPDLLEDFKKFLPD
Protocol: IC50 determination for unlabeled Ume6 SID, E6, E6R and E6S: the concentrations of FITC-Ume6 SID (30 nM), and GST-Sin3 PAH2 (3 μM) were fixed and the compounds were titrated with an HP D300 (Hewlett-Packard, CA) to the assay plate. The assayed concentrations are given here as μM concentrations: 6, 6.6, 8.6, 11.2, 14.7, 19.3, 25.3, 33.1, 43.4, 56.9, 74.5, 97.7, 128, 167.7, 219.7, 287.9, 377.2, 494.2, 647.5 and 848.3.
Using a fluorescence polarization (FP) assay, the interaction between the two minimal domains of Sin3 and Ume6 reported in the literature was measured [Washburn & Esposito 2001, Le Guezennec et al 2006]: the paired amphipathic helix 2 (PAH2; residues 402-473) and the Sin3-interacting domain (SID; residues 516-531), respectively (FIG. 6A). In this FP setting, Sin3 PAH2 is N-terminally fused to a glutathione S-transferase (GST) tag while Ume6 SID is labeled with a fluorescein isothiocyanate (FITC) probe at the N-terminal position. […] The binding affinity of this interaction was evaluated at 0.9 μM, as reflected by the calculated equilibrium dissociation constant, KD.
To examine inhibition of the Sin3-Ume6 interaction by E6 outside of potential interference from other cellular components, an in vitro fluorescence polarization (FP) assay was used.

[8] = target: Sc Sin3 PAH2-Ume6 SID (TAMRA-labeled) interaction (Saccharomyces cerevisiae, UniProt P22579); test: biochemical
Sc Sin3 PAH2-Ume6 SID (TAMRA-labeled) interaction, sequence (P22579 402-473): as above
Protocol: Symbols represent individual data points (A) or means with SEM, and lines fitted curves.
IC50 determination for unlabeled Ume6 SID, E6, E6R and E6S: the concentrations of FITC-Ume6 SID (30 nM), and GST-Sin3 PAH2 (3 μM) were fixed and the compounds were titrated with an HP D300 (Hewlett-Packard, CA) to the assay plate.

[9] = test system: human neuroblastoma SK-N-BE(2)-C xenograft; test: Neuroblastoma xenograft efficacy study; format: in vivo; conditions: E6R 50 mg/kg, SAHA 20 mg/kg
Protocol: Xenografts studies were performed at the TRACE PDX platform of the Leuven Cancer Institute (LKI) at KU Leuven-UZ Leuven. Treatment experiments included 24 NMRI-Foxlnu nude mice (Taconic) implanted with human neuroblastoma cell line SK-N-BE(2)-C(2 million cells/implant/mouse). Cells, tested for a full panel of murine pathogens (Impact profile I, IDEXX) prior to engraftment, were resuspended in 50% matrigel solution in PBS for injection in the mouse right flank. When tumors reached a volume of approximately 200 mm^3, mice were randomly assigned to vehicle (34% DMSO, 55% saline 0.9%, 5% ethanol, 5% kolliphor, 1% NaOH 1 M), E6R (50 mg/kg), or SAHA (20 mg/kg) treatment groups. Treatments were administered daily intraperitoneally for 10 days or until reaching human endpoint (i.e. tumor volume >1,500 mm^3). Tumors were measured daily with digital calipers, and volume was estimated as V=L×W×H×(π/6) (L: length; W: width; H: height). […] All data were analyzed using GraphPad Prism 8. Comparisons between the vehicle and treated groups were tested for statistical significance using […].

[10] = test system: DOI-induced head-twitch response (HTR); conditions: literature reports; cited from earlier work

Structure (SMILES): O=C(CCCCC[C@@H]1NC(=O)[C@H]2CCCCN2C(=O)[C@H](Cc2ccccc2)NC(=O)[C@H](Cc2ccccc2)NC1=O)C1CO1 (stereo partly shown) [TRX, trapoxin A] (cyclo(FF[dPip][Aoe(9ξ)]))
effect on CAR1 and SPO13 expression ([1]; 250 μM): consistently derepressed
effect on all Rpd3-regulated loci ([1]; FIG. 3I): activated all Rpd3-regulated loci
Rpd3-sensitive acid phosphatase activity [2]: induced
CYH sensitivity [3]: induced
inhibition of HDAC enzymatic activity [4]: systematically reduced HDAC activity
effect on expression of CDKN1A, SOCS3 and EGR1 [5]: derepressed

half-life in mouse liver microsomes [6]: ~10 min
Structure (SMILES): CCN(CC)CCNC(=O)c1c(C)[nH]c(/C=C2\C(=O)Nc3ccc(F)cc32)c1C [sunitinib, reference compound]

Structure (SMILES): C[C@H](NC(=O)c1c(O)n2ccccc2nc1=O)c1ccccc1 [E6S]
effect on expression of CDKN1A, SOCS3 and EGR1 [5]: only perturbed expression of two of the tested downstream genes
IC50 [7]: 155 µM and 174 µM
Ki ([7]; inhibitory concentration (Ki), from Example 6 IC50, assuming competitive inhibition): ~30 µM
Ki ([7]; inhibitory concentrations (Ki), from Example 6A IC50, assumption of competitive inhibition): 38.5 µM
IC50 [8]: 597 µM

Structure (SMILES): O=C(CCCCCCC(=O)Nc1ccccc1)NO [SAHA, suberoylanilide hydroxamic acid, reference compound]
effect on expression of CDKN1A, SOCS3 and EGR1 [5]: derepressed
tolerability and body weight of xenografted mice ([9]; daily): did not affect mice weight; also recorded: well-tolerated
growth of neuroblastoma tumors compared to vehicle ([9]; daily intraperitoneally 10 days): significantly reduced the growth
head-twitch behavior after chronic treatment [10]: reduced DOI-induced head-twitch behavior in WT, but not in HDAC2 cKO mice; also recorded: reduces head-twitch response (HTR) behavior
